Active and inactive are the calls of the source.
Tests used:
[1] = C. albicans growth with fluconazole, confirmation, fluorescence, retest (AID 2467); type: functional, cell-based
[2] = molecular target: T1, RNA-binding protein pos-1 (Caenorhabditis elegans, UniProt G5EF15); assay: inhibitors of POS-1/mex-3 RNA binding, dose response, biochemical, fluorescence polarization (AID 1964);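 also: purified POS-1 fused to maltose binding protein made in E. coli; potency of compounds blocking POS-1 binding to fluorescent RNA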
T1 sequence (G5EF15 whole entry): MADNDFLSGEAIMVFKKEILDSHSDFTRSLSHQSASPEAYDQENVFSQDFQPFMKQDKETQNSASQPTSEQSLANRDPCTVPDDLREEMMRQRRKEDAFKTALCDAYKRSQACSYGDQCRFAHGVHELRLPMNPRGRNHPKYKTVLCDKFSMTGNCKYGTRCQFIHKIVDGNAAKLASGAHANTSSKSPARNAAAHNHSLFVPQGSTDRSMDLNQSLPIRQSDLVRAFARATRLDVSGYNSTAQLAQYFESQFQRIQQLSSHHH

[3] = molecular target: T2, Tyrosine-protein phosphatase non-receptor type 5 (Homo sapiens, UniProt P54829); assay: STEP phosphatase inhibitors, confirmation, biochemical, fluorescence intensity, uHTS hits (AID 602372); type: functional; conditions: read-out: IC50_Mean
T2 sequence (P54829 whole entry): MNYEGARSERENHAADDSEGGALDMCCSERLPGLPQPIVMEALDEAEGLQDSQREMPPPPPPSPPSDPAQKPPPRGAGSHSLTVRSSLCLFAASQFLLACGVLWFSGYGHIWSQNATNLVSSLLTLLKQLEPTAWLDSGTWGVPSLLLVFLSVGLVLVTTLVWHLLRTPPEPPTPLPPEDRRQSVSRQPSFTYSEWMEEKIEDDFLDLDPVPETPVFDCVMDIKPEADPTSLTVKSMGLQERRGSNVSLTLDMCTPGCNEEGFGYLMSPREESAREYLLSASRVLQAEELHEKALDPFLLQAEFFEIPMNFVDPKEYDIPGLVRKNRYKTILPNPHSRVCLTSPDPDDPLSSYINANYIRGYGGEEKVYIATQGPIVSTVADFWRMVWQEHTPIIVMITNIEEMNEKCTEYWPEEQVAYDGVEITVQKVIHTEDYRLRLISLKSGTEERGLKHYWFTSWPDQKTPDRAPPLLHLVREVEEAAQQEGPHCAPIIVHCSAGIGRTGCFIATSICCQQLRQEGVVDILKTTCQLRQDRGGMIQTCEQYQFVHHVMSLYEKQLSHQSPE

[4] = molecular target: T3, Dual specificity protein phosphatase 6 (Rattus norvegicus, UniProt Q64346); assay: MKP-3 phosphatase inhibitors, primary screen, biochemical, rat enzyme, in vitro (AID 425)
T3 sequence (Q64346 whole entry): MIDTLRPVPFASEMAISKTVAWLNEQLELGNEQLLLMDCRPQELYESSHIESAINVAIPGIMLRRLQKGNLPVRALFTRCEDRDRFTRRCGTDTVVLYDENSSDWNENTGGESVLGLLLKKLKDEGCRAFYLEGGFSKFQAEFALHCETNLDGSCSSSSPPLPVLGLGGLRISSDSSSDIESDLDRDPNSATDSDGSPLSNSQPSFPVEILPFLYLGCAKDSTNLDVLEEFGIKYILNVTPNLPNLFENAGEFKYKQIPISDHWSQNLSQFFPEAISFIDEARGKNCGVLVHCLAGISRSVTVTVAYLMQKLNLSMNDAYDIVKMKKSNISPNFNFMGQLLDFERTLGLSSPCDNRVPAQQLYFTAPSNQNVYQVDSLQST

[5] = molecular target: Dual specificity protein phosphatase 3 (Homo sapiens, UniProt P51452); assay: VHR1 phosphatase inhibitors, biochemical (AID 1878)
[6] = molecular target: Voltage-gated N-type calcium channel alpha-1B subunit/Amyloid beta A4 precursor protein-binding family A member 1 (Homo sapiens, UniProt Q00975+Q02410); type: protein assay
Aminopeptidase N = molecular target: T4, Aminopeptidase N (Plasmodium falciparum FcB1/Columbia, UniProt O96935); assay: P. falciparum M1AAP inhibitors, biochemical, fluorogenic H-Leu-NHMec substrate, 1536-well (AID 1445); set-up: species or system Plasmodium falciparum 3D7, 3D7
T4 sequence (O96935 whole entry): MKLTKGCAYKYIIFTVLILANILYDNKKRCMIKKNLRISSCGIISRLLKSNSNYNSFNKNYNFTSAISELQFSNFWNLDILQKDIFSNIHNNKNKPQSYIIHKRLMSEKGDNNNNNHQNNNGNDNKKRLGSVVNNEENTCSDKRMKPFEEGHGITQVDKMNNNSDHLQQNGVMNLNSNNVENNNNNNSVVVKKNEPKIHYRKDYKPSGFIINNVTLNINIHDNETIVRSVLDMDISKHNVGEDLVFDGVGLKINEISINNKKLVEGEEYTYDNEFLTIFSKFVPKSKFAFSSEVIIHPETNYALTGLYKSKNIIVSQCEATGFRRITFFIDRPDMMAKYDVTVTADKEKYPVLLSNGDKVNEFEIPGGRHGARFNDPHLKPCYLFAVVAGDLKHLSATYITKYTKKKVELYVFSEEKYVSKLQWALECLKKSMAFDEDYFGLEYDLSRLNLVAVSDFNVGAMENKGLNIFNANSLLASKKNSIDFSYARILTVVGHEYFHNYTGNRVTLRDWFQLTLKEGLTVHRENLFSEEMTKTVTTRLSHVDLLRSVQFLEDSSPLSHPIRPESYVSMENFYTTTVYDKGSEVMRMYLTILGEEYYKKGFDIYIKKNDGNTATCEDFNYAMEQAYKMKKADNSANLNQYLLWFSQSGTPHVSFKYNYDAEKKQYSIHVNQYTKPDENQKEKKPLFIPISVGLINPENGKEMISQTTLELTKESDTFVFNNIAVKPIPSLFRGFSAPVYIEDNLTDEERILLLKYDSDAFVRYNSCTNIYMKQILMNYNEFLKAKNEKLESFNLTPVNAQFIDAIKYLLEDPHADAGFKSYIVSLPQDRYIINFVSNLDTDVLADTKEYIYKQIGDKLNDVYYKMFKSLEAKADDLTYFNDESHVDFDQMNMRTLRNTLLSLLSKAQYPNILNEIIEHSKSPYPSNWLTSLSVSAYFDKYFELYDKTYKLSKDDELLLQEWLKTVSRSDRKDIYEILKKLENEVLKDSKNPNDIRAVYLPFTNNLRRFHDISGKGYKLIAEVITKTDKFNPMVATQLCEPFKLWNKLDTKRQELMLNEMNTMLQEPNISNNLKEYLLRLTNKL

Sequence of Dual specificity protein phosphatase 3 (P51452 whole entry): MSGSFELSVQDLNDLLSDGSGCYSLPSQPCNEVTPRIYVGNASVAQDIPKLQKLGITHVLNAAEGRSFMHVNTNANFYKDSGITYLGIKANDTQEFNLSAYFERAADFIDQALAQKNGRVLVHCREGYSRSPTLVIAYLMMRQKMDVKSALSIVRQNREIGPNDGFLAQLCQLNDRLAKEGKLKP
Sequence of Voltage-gated N-type calcium channel alpha-1B subunit/Amyloid beta A4 precursor protein-binding family A member 1 (Q00975 whole entry): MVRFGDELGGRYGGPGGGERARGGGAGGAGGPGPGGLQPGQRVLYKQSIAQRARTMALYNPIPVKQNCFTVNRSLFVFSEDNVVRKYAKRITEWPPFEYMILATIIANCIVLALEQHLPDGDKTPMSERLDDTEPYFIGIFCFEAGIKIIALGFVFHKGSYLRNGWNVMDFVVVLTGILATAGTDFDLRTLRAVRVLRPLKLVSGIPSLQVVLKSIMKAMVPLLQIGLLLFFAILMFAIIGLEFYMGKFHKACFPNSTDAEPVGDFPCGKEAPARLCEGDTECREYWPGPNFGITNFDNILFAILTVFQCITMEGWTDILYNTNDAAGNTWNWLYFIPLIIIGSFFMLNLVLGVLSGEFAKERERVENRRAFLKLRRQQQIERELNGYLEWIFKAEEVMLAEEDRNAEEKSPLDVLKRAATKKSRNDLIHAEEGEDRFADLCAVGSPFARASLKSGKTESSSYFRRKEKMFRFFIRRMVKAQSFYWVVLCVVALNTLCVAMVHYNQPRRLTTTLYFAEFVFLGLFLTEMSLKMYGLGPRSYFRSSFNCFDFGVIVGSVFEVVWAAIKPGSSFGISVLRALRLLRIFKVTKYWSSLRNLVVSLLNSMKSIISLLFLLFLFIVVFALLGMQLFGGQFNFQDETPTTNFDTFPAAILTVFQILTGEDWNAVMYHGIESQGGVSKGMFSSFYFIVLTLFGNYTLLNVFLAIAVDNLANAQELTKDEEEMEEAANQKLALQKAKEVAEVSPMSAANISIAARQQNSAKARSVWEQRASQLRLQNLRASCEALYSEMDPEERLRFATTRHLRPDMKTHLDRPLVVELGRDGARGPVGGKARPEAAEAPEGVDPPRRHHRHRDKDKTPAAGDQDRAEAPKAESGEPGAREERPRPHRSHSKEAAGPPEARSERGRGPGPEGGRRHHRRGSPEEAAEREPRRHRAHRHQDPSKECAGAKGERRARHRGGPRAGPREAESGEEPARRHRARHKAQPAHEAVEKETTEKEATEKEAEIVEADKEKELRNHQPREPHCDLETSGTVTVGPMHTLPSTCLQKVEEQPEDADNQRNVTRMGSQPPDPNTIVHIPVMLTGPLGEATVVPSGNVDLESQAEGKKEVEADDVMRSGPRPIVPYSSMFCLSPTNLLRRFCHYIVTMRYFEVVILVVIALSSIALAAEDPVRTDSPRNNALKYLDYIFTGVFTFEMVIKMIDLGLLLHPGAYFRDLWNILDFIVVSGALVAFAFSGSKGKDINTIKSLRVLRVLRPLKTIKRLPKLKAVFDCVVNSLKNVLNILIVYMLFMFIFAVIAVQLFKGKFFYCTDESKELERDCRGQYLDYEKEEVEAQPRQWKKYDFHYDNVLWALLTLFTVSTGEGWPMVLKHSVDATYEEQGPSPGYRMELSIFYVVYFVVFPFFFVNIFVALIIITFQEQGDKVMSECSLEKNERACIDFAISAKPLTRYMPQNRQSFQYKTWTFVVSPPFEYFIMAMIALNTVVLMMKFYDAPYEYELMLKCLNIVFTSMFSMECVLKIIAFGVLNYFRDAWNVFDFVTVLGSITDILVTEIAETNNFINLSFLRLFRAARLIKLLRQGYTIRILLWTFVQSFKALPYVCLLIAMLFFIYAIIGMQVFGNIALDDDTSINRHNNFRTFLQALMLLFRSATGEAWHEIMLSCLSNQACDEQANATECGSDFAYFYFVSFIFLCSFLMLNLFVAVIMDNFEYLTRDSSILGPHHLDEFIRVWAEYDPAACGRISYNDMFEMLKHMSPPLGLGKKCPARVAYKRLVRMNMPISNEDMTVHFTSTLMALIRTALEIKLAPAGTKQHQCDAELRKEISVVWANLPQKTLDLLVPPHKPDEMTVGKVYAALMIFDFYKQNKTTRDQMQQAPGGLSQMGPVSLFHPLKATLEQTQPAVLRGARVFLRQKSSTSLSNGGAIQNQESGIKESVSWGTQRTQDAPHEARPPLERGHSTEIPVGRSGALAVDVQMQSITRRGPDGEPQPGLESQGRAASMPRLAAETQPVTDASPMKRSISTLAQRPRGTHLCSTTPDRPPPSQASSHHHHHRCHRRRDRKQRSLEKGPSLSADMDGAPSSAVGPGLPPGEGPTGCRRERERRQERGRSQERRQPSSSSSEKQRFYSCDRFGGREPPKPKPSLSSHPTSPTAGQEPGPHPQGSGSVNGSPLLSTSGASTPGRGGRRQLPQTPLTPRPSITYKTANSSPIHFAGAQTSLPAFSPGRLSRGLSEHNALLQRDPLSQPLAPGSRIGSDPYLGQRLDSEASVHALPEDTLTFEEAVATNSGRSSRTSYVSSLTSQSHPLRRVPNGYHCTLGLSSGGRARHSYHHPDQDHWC
Sequence of Voltage-gated N-type calcium channel alpha-1B subunit/Amyloid beta A4 precursor protein-binding family A member 1 (Q02410 whole entry): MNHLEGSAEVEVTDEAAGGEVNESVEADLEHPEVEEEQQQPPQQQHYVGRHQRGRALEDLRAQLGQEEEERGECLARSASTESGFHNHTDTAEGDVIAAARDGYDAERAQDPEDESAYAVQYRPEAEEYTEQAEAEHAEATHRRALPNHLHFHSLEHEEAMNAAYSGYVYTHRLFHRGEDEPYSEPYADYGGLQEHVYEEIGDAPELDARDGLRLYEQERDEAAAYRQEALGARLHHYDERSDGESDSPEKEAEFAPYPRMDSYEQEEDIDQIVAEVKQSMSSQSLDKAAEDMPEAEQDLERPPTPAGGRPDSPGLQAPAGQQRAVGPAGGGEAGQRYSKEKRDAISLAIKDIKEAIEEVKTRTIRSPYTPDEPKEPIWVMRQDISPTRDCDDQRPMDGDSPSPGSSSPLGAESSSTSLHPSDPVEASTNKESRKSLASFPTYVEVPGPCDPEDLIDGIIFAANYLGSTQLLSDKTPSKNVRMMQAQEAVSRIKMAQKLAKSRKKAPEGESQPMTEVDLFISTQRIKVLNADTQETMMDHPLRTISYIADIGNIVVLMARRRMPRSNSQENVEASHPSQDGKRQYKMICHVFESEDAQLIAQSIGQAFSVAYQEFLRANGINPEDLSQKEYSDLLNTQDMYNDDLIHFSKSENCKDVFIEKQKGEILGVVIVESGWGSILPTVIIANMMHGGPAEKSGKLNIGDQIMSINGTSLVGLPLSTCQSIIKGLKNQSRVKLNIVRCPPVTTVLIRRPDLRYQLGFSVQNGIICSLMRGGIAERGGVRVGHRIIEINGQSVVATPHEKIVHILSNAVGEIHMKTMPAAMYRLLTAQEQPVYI

Q: With `CCN1/C(=C/c2ccc3cc(C)ccc3[n+]2CC)Sc2cc(C)c(C)cc21` as the compound, how does the EC50 [1] read?
A: The EC50 was < 0.03 µM (active).

Q: With `Nc1ccc2nc3c(O)nc(S)nc3nc2c1` as the compound, how does the EC50 [2] read?
A: Its EC50 is 7.85 µM (inconclusive).

Q: For `CSc1ccc(C=NNc2ccc(S(=O)(=O)Nc3ccccc3C(=O)O)cc2[N+](=O)[O-])cc1`, which IC50 [3] is on record?
A: The IC50 was 4.12 µM (active).

Q: Which results are given for `O=C(O)COc1ccc(/C=N/NC(=O)c2ccc(-c3csc(Nc4ccc(Cl)cc4)n3)cc2)cc1`?
A: IC50 [4]: 27.3 µM (active); IC50 [5]: 1.3 µM (active); IC50 [6]: 10.1 µM (active)

Q: Which IC50 (Aminopeptidase N) does the source give for `CC(/C=C1\SC(=S)N(NS(=O)(=O)c2ccccc2)C1=O)=C\c1ccccc1` here?
A: Its IC50 is 45.4 µM (active).
